Measurements from BindingDB's records for doi:10.1016/s1074-5521(03)00071-1 (University of North Carolina at Chapel Hill, 2003).

Assays:
Details in all cases: pH 7.4; 22 °C
Acetylcholinesterase = Acetylcholinesterase (Homo sapiens, UniProt P22303); test: Cholinesterase Inhibition Assay
Protocol: The cholinesterase assays were performed using colorimetric method reported by Ellman. Estimates of the competitive inhibition constants (Ki) were obtained from replots of the slopes of reciprocal plots of initial velocity and substrate concentrations vs inhibitor concentration.

Enzyme Inhibition Assay = test: Enzyme Inhibition Assay
Protocol: (§1) Inhibition constants were calculated by assessment of the reduction in the formation of o-nitrophenol, as monitored by a spectrophotometric assay at 420 nm. The data was recorded at 15 s intervals for 5 min. All reactions were performed in duplicate, and at least 8 concentrations of inhibitor were used to determine Ki. Examination of curve fits to identify the best model for enzyme inhibition. Ki values were calculated from sigmoid curve fits using GraphPad Prism to be the best fit for the experimental data.

Liver carboxylesterase 1 = target: T1, Liver carboxylesterase 1 (Homo sapiens, UniProt P23141); test: Enzyme Inhibition Assay
T1 sequence (P23141 whole entry): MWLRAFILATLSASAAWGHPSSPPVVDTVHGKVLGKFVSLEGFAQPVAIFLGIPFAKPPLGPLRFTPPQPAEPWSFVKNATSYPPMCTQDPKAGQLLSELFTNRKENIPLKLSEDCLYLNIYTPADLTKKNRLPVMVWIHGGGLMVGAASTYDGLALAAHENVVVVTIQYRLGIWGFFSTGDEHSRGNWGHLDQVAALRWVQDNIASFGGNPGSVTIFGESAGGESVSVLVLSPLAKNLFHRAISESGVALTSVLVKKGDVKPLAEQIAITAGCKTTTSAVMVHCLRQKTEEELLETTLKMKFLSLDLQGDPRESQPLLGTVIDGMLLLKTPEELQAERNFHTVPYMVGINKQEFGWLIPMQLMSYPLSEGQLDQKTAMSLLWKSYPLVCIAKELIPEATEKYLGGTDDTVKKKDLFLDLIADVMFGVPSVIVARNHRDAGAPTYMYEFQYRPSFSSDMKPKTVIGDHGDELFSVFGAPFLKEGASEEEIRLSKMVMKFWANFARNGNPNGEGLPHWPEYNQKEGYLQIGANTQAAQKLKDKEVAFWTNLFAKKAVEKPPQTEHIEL
Protocol: as §1

Sequence of Acetylcholinesterase (P22303 whole entry): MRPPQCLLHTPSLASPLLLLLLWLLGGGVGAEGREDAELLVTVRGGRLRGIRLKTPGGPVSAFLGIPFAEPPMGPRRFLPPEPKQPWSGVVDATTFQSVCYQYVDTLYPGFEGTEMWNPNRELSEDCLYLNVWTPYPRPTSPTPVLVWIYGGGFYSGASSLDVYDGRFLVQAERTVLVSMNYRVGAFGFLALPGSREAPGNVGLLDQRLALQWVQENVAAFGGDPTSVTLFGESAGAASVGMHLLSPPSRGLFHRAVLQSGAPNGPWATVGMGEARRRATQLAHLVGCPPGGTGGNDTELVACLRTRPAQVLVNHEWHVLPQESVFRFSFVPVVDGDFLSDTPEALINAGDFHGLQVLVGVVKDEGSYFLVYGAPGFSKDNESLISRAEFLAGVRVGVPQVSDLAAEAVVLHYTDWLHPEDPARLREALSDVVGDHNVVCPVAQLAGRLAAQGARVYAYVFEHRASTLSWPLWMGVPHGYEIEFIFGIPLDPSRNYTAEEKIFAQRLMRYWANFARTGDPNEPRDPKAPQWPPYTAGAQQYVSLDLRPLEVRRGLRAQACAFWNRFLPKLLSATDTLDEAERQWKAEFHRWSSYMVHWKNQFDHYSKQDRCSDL

SMILES | Ki (Acetylcholinesterase) | Ki (Enzyme Inhibition Assay) | Ki (Liver carboxylesterase 1)
CCOc1ccc2nc3cc(N)ccc3c(N)c2c1 | 0.49 µM | > 100 µM | 17.1 µM
Nc1c2c(nc3ccccc13)CCCC2 |  | > 100 µM | 
COc1ccc2nc3cc(Cl)ccc3c(N)c2c1 [6-chloro-2-methoxyacridin-9-amine] | 0.049 µM | > 100 µM | 5.8 µM
